Laboratory results as given in the NIST ThermoML archive (doi:10.1016/j.fluid.2004.12.013).

Assay: excess molar enthalpy (molar enthalpy of mixing); xn = mol fraction of the nth substance listed
Conditions: 298.15 K, 101.3 kPa, Liquid

CCCCCCCCC [nonane] + CCCCCO
Conditions | excess molar enthalpy [kcal/mol]
x2 = 0.0545 | 0.0989
x2 = 0.0997 | 0.123
x2 = 0.1605 | 0.141
x2 = 0.2245 | 0.155
x2 = 0.2862 | 0.163
x2 = 0.3535 | 0.166
x2 = 0.4025 | 0.165
x2 = 0.4455 | 0.164
x2 = 0.4998 | 0.16
x2 = 0.5489 | 0.152
x2 = 0.6006 | 0.142
x2 = 0.6527 | 0.129
x2 = 0.7058 | 0.112
x2 = 0.7524 | 0.098
x2 = 0.7962 | 0.0789
x2 = 0.8478 | 0.0614
x2 = 0.8935 | 0.0411
x2 = 0.9382 | 0.0206

CCCCCCCCC [nonane] + COC(C)(C)C
Conditions | excess molar enthalpy [kcal/mol]
x2 = 0.0816 | 0.0313
x2 = 0.1472 | 0.0538
x2 = 0.1747 | 0.0633
x2 = 0.2383 | 0.0825
x2 = 0.2404 | 0.0825
x2 = 0.3312 | 0.102
x2 = 0.3912 | 0.109
x2 = 0.4867 | 0.116
x2 = 0.6601 | 0.104
x2 = 0.7157 | 0.0937
x2 = 0.7399 | 0.0887
x2 = 0.7773 | 0.0805
x2 = 0.8129 | 0.0729
x2 = 0.8723 | 0.0552
x2 = 0.895 | 0.0478
x2 = 0.9235 | 0.0413
x2 = 0.9285 | 0.0337
x2 = 0.9459 | 0.0301
x2 = 0.9573 | 0.0249
x2 = 0.9632 | 0.0196
